Each molecule was assayed against T1, glucocorticoid receptor (Homo sapiens, UniProt P04150) (assay: Glucocorticoid Receptor Binding Assay ([3H]-dexamethasone displacement, A549 cell extract)). Conditions: A549 human lung epithelial cell extract, 1.86 nM [3H]-dexamethasone; read-out: GR Ki.
T1 construct: host or cells: A549 human lung epithelial cells (sonicated cell extract)
T1 sequence (P04150 1-777): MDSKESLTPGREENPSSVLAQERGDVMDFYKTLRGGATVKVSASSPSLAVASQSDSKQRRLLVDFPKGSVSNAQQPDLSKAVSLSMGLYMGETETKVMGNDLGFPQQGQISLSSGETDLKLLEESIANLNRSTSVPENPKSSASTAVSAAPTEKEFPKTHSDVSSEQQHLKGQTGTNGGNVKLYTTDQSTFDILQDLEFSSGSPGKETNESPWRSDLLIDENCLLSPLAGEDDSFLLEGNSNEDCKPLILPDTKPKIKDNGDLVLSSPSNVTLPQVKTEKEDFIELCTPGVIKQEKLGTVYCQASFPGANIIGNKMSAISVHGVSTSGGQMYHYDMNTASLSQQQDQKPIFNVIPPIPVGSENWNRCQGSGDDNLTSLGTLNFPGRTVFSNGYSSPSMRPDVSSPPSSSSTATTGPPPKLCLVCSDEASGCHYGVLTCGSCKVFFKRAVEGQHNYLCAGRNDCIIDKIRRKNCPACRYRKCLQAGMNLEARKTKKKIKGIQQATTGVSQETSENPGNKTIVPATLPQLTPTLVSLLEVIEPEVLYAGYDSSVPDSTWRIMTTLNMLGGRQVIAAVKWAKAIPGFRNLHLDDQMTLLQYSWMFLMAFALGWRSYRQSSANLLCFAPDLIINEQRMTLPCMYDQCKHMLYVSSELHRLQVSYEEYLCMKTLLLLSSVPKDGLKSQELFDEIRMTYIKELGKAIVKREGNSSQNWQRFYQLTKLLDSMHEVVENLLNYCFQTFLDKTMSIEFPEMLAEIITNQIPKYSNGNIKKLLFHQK
In short: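 A549 cell extract (50-200 ug; buffer 50 mM Tris-HCl pH 7.2 with glycerol, NaCl, MgCl2, EDTA, 10 mM molybdate) incubated with 1.86 nM [3H]-dexamethasone and test compound, 16 h at 4 °C. Unbound ligand removed with dextran-coated charcoal; bound radioactivity counted. IC50 converted to Ki via Cheng-Prusoff.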

Ki	SMILES
≤ 500 nM	COC(=O)c1cccc(-c2noc(CN3C(=O)C(c4cc(C)c(O)c(C)c4)(c4cc(C)c(O)c(C)c4)c4ccccc43)n2)c1 [Example 141, 3-{5-[3,3-Bis-(4-hydroxy-3,5-dimethyl-phenyl)-2-oxo-2,3-dihydro-indol-1-ylmethyl]-[1,2,4]oxadiazol-3-yl}-benzoic acid methyl ester]
≤ 1000 nM	COc1ccc(-c2noc(CN3C(=O)C(c4cc(C)c(O)c(C)c4)(c4cc(C)c(O)c(C)c4)c4ccccc43)n2)cc1 [Example 142, 3,3-Bis-(4-hydroxy-3,5-dimethyl-phenyl)-1-[3-(4-methoxy-phenyl)-[1,2,4]oxadiazol-5-ylmethyl]-1,3-dihydro-indol-2-one]
≤ 500 nM	COc1nccc(N2C(=O)C(c3cc(C)c(O)c(C)c3)(c3cc(C)c(O)c(C)c3)c3ccccc32)n1 [Example 143, 3,3-Bis-(4-hydroxy-3,5-dimethyl-phenyl)-1-(2-methoxy-pyrimidin-4-yl)-1,3-dihydro-indol-2-one]

Source: US7250442B2, “Dihydroindol-2-one derivatives as steroid hormone nuclear receptor modulators” (Eli Lilly and Company, priority 2003, dated 2007)
